Patent publication US20250305010A1, “LIPID COMPOSITIONS AND METHODS OF PRODUCING SAME” (Wilk Technologies International Ltd., priority 2022, published 2025)

Experiments:
Type in all cases: cell-based, bovine
[1] = system: LXR downstream genes: SREBP1, FASN, SLC25A1 and SQLE; assay: RT-PCR expression of LXR downstream lipid metabolism genes in MECs after overnight LXR agonist incubation; conditions: OA incubation of MECs
Procedure: A primary culture of MEC was isolated from mammary biopsies. Briefly, udder tissue was collected from lactating cows in a commercial slaughterhouse and immediately submerged in ice-cold growth medium, DMEM-F12, with 1000 U/ml penicillin, 1 mg/ml streptomycin, 2.5 μg/ml amphotericin B mixture, and 0.02 mg/ml heparin supplementation to prevent cell clotting after digestion. Study protocols followed the regulations of the Israeli Ministry of Health. Cells were grown in plastic culture dishes with DMEM/F12 supplemented with 10% (w/v) FBS, 100 U/ml penicillin, 100 μg/ml streptomycin, 0.25 μg/ml amphotericin B supplemented with insulin (1 μg/ml), hydrocortisone (0.5 μg/ml) and prolactin (1 μg/ml). 2. […] LXRa was added into the media with or without Oleic acid. Two LXR agonists were tested: GW3965 (LXR1, SIGMA) and T0901317 (LXR2, SIGMA), each at a concentration of luM/ml for at least overnight (ON) incubation. The OA was added after cells reached the confluency of at least 80%. Cells were harvested using the […] reagent and pellet was collected by centrifugation of 3 min in 300 rcf. RNA was extracted from 1×10^6 cells using NzytechTM total RNA isolation kit (MB13402). cDNA was prepared using SensiFastTM cDNA kit (0.5μgr RNA/20 μl reaction mix). RT-PCR was done with the following primers by using SensiFastTM RT-PCR kit with 1.25-20 ng cDNA/well. [table] […]

[2] = system: mammary epithelial cells (MECs); assay: Cell viability and morphology of MECs under oleic acid with or without LXRa
Procedure: 1. Oleic acid treatment: Oleic acid was added to the induction medium at […] final concentration. Treatment was carried for 1 up to 7 days.
2. […] LXRa was added into the media with or without Oleic acid. Two LXR agonists were tested: GW3965 (LXR1, SIGMA) and T0901317 (LXR2, SIGMA), each at a concentration of luM/ml for at least overnight (ON) incubation. The OA was added after cells reached the confluency of at least 80%.
The analysis was done for the presence of 360 μM OA or 1100 μM OA with or without LXRa (TO901317).

[3] = system: mammary epithelial cells (MECs); assay: Intracellular triglycerides (TGs) in MECs, plate assay
Procedure: 1. Oleic acid treatment: Oleic acid was added to the induction medium at […] final concentration. Treatment was carried for 1 up to 7 days. 2. […] LXRa was added into the media with or without Oleic acid. Two LXR agonists were tested: GW3965 (LXR1, SIGMA) and T0901317 (LXR2, SIGMA), each at a concentration of luM/ml for at least overnight (ON) incubation. The OA was added after cells reached the confluency of at least 80%. After treatment, cells were harvested with trypsin (0.05%), washed with 0.9% (w/v) NaCl and stored at −20° C. until lipid extraction. Total lipids were extracted from the intact cells by NP-40 and from media by cold-extraction procedure developed by Folch et al. with few adaptations. Briefly, a 5-ml aliquot of methanol: chloroform solution (2:1, v/v) was added to each sample. After incubation at room temperature, 1 ml of double-distilled water was added. After overnight incubation at 4° C., the upper phase was discarded, and the lower phase was filtered through a Pasteur pipette with glass wool. Samples were then dried under a nitrogen stream at 65° C., diluted in 100 μl 0.5% NP-40. Of note, lipid metabolites are measured by Cobas measurement, which is a parameter for lipid activity but measures also glycerol, the plate assay on the other hand measures TGs specifically while eliminating the glycerol background. After treatment, medium was collected and centrifuged at 500 g for 10 min. The supernatant was transferred to a fresh tube and kept at 4° C. until analysis. Medium triglyceride content was quantified with a Triglyceride Quantification Kit (lipase assay Abcam, Cambridge, UK). Quantification was performed against external standard curves and expressed as μg/10∧6 live cells. Live cell number was determined with a hemocytometer after Trypan blue staining.

[4] = system: mammary epithelial cells (MECs); assay: Lipids / lipid metabolites released to the culture medium of MECs; conditions: 1 μM/ml LXRa with OA
Procedure: Total lipids were extracted from the intact cells by NP-40 and from media by cold-extraction procedure developed by Folch et al. with few adaptations. Briefly, a 5-ml aliquot of methanol: chloroform solution (2:1, v/v) was added to each sample. After incubation at room temperature, 1 ml of double-distilled water was added. After overnight incubation at 4° C., the upper phase was discarded, and the lower phase was filtered through a Pasteur pipette with glass wool. Samples were then dried under a nitrogen stream at 65° C., diluted in 100 μl 0.5% NP-40. Of note, lipid metabolites are measured by Cobas measurement, which is a parameter for lipid activity but measures also glycerol, the plate assay on the other hand measures TGs specifically while eliminating the glycerol background. After treatment, medium was collected and centrifuged at 500 g for 10 min. The supernatant was transferred to a fresh tube and kept at 4° C. until analysis. Medium triglyceride content was quantified with a Triglyceride Quantification Kit (lipase assay Abcam, Cambridge, UK). Quantification was performed against external standard curves and expressed as μg/10∧6 live cells. Live cell number was determined with a hemocytometer after Trypan blue staining.

Compound	Effect on LXR dependent gene expression of lipid metabolism [1]	Effect on cells viability ([2]; oleic acid above 300 μM or longer than one day)	Effect of LXRa on oleic acid toxicity (cells viability and morphology) ([2]; LXRa 1 μM/ml TO901317, 360 μM or 1100 μM OA)	Higher intracellular TGs levels vs OA only ([3]; 360 μM OA treatment, LXRa 1 μl/ml)	Delta triglycerides (TGs) levels inside cells with vs without LXRa ([3]; FIG. 3)	Effect of LXR agonist on intracellular TGs ([3]; OA concentrations higher than 360 μM)	Lipids release to the medium [4]
CCCCCCCC/C=C\CCCCCCCC(=O)O [Oleic acid, oleic acid]	no effect	negative effect					
O=S(=O)(c1ccccc1)N(CC(F)(F)F)c1ccc(C(O)(C(F)(F)F)C(F)(F)F)cc1 [LXRa, T0901317]			ameliorates the negative effect	60%	similar	not observed	release lipids to the medium
